{
  "source": "patent US8426371B2",
  "about": "“Biologically active extract from Dendrobium plant, use thereof and process for preparing the same” (National Yang-Ming University, priority 2007, dated 2013)",
  "tested_on": "RPE cells",
  "assay": "Phagocytosis of RPE: FITC-ROS uptake, fluorescence intensity (total; ingestion with fluoro Quench dye)",
  "format": "cell-based",
  "conditions": "for effect on the total phagocytosis of RPE: 0.1, 1, 10, 100 μg/ml, 24 hrs treatment in 2% FCS DMEM, then FITC-ROS 4 hrs, compared with 2% FCS; for effect on the phagocytosis of RPE (total and ingestion, FIGS. 8-15): summary based on FIGS. 8-15",
  "protocol": "1×10^4 RPE cells are seeded in 96-well microplate per well, containing 5% FCS in DMEM after 48 hrs, and the medium is changed with 2% FCS in DMEM. Then different concentrations of DCMPbL6,7D2H2H3 are added respectively. After 24 hrs, 50 μl of 2×10^7 FITC-ROS/ml is added into each well. Four hours later, the unbounded FITC-ROS is washed out with PBS+2% sucrose. The emission wavelength is 485 nm and the detecting wavelength is 530 nm. The fluorescence intensity is detected by a 1420 Multilable counter (PE) measurement system. The detected fluorescence intensity represents the total phagocytosis. If the fluoro Quench dye is added, the detected fluorescence intensity represents the ingestion phagocytosis. *P<0.05, **P<0.02, ***P<0.01 and ****P<0.001 are obtained by comparing with phagocytosis of RPE treated with 2% FCS.\n1×10^4 RPE cells are seeded in 96-well microplate per well, containing 5% FCS in DMEM after 48 hrs, and the medium is changed with 2% FCS in DMEM. Then different concentrations of DCMPbL6,7D2H2H3H2 are added respectively. After 24 hrs, 50 μl of 2×10^7 FITC-ROS/ml is added into each well. Four hours later, the unbounded FITC-ROS is washed out with PBS+2% sucrose. The emission wavelength is 485 nm and the detecting wavelength is 530 nm. The fluorescence intensity is detected by a 1420 Multilable counter (PE) measurement system. The detected fluorescence intensity represents the total phagocytosis. If the fluoro Quench dye is added, the detected fluorescence intensity represents the ingestion phagocytosis. *P<0.05, **P<0.02, ***P<0.01 and ****P<0.001 are obtained by comparing with phagocytosis of RPE treated with 2% FCS.\n1×10^4 RPE cells are seeded in 96-well microplate per well, containing 5% FCS in DMEM after 48 hrs, and the medium is changed with 2% FCS in DMEM. Then different concentrations of DCMPbL6,7D2H2H3H3 are added respectively. After 24 hrs, 50 μl of 2×10^7 FITC-ROS/ml is added into each well. Four hours later, the unbounded FITC-ROS is washed out with PBS+2% sucrose. The emission wavelength is 485 nm and the detecting wavelength is 530 nm. The fluorescence intensity is detected by a 1420 Multilable counter (PE) measurement system. The detected fluorescence intensity represents the total phagocytosis. If the fluoro Quench dye is added, the detected fluorescence intensity represents the ingestion phagocytosis. *P<0.05, **P<0.02, ***P<0.01 and ****P<0.001 are obtained by comparing with phagocytosis of RPE treated with 2% FCS.\n1×10^4 RPE cells are seeded in 96-well microplate per well, containing 5% FCS in DMEM after 48 hrs, and the medium is changed with 2% FCS in DMEM. Then different concentrations of DCMPbL6,7D2H2H3H4 are added respectively. After 24 hrs, 50 μl of 2×10^7 FITC-ROS/ml is added into each well.",
  "data": [
    {"smiles": "O=c1cc(-c2ccc(O)cc2)oc2c([C@@H]3OC[C@H](O)[C@H](O)[C@H]3O)c(O)c([C@@H]3OC[C@H](O)[C@H](O)[C@H]3O)c(O)c12", "note": "[DCMPbL6,7D2H2H3H3, apigenin 6,8-Di-C-α-L-arabinopyranoside]", "values": [
      {"measurement": "effect on the total phagocytosis of RPE", "value": "can accelerate the phagocytosis of RPE"},
      {"measurement": "effect on the phagocytosis of RPE (total and ingestion, FIGS. 8-15)", "value": "could accelerate the phagocytosis of RPE"}
    ]},
    {"smiles": "O=c1cc(-c2ccc(O)cc2)oc2c([C@@H]3OC[C@@H](O)[C@@H](O)[C@@H]3O)c(O)c([C@@H]3OC[C@H](O)[C@H](O)[C@H]3O)c(O)c12", "note": "[DCMPbL6,7D2H2H3H4, apigenin 6-C-α-L-Arabinopyranosyl-8-C-β-D-arabinopyranoside]", "values": [
      {"measurement": "effect on the total phagocytosis of RPE", "value": "can accelerate the phagocytosis of RPE"},
      {"measurement": "effect on the phagocytosis of RPE (total and ingestion, FIGS. 8-15)", "value": "could accelerate the phagocytosis of RPE"}
    ]},
    {"smiles": "O=c1cc(-c2ccc(O)cc2)oc2c([C@@H]3OC[C@H](O)[C@H](O)[C@H]3O)c(O)c([C@@H]3OC[C@@H](O)[C@H](O)[C@H]3O)c(O)c12", "note": "[DCMPbL6,7D2H2H3H2, apigenin 6-C-β-D-Xylopyranosyl-8-C-α-L-arabinopyranoside]", "values": [
      {"measurement": "effect on the total phagocytosis of RPE", "value": "can accelerate the phagocytosis of RPE"},
      {"measurement": "effect on the phagocytosis of RPE (total and ingestion, FIGS. 8-15)", "value": "could accelerate the phagocytosis of RPE"}
    ]}
  ]
}
